In patent publication US11091511B2, “Panaxdiol-type ginsenoside derivative, preparation method therefor and use thereof” (ARMY MEDICAL UNIVERSITY, priority 2016, dated 2021):
Marks after values point to notes of the source that are not given here.

Columns and labels:
apoE−/− mice [1] = assay: Blood lipids (LDL-C, HDL-C) in apoE-/- mice on high-fat diet; assay type: in vivo, mouse; conditions: apoE-/- mice serum, intragastric 15 weeks, compounds 30 mg/(kg·d), simvastatin 10 mg/(kg·d), x ± s; for HDL-C: n = 5, saline control 3.74 ± 0.62; for LDL-C: n = 5, saline control 7.33 ± 1.03
Excerpt: The effects of the compounds prepared in Examples 1-30 of the present invention on the percentages of areas of atherosclerotic plaque formation to the area of the entire artery in apoE−/− mice with a high-fat diet and the levels of low-density lipoprotein cholesterol and the levels of high-density lipoprotein, the specific steps are as follows:
1. animals: 160 ten-week-old, healthy and clean-grade apoE−/− mice (purchased from Peking University Experimental Animal Center), males, weight: 22-25 g, were housed in separate cages in a sterile laminar feeding room and fed freely. The mice were fed by a high-fat diet (conventional feed+0.15% cholesterol+21% lard) for 25 weeks, the room temperature was kept at 24° C., relative humidity: 50%, illumination time 7:30-19:30.
2. Grouping, administration method:
after 10 weeks of feeding, the animals were divided into the following 32 groups (n=5) by weight in a balanced and random manner, and killed 15 weeks after administration.
Normal saline control group: normal saline, intragastric administration.
Positive control group: simvastatin 10 mg/(kg·d), intragastric administration.
The compound groups prepared in Examples 1-30 of the present invention (30 groups in total): each was intragastric administered 30 mg/(kg·d).
(2) Determination of the levels of total cholesterol (TC), low-density cholesterol lipoprotein (LDL-C) and high-density lipoprotein cholesterol (HDL-C): using ROCHE 7060 automatic biochemical analyzer for the determination.
Data were expressed as x±s, and SPSS 10.0 line single-factor analysis of variance was performed among groups, a significant difference was indicated when p<0.05.

RAW264.7 cells = assay: RAW264.7 cell survival rate by CCK8 method; assay type: cell-based, mouse; conditions: compound 10 prnol/L, 0.1% DMSO, CCK8, x ± s, n = 3, normal saline control = 1
Protocol: In order to further verify the toxicities of the compounds prepared in Examples 1-30 of the present invention, the mouse macrophage cell line RAW264.7 was cultured, and the compounds prepared in Examples 1-30 of the invention were prepared to a concentration of […] using culture medium, wherein the solvent was normal saline, the co-solvent was dimethyl sulfoxide (DMSO, the final concentratoin was 0.1%), and a 0.1% DMSO saline control group was provided. The cell survival rate was determined by CCK8 method. The data were expressed as x±s. SPSS 10.0 line single-factor analysis of variance was performed among groups. The difference was significant when p<0.05.

[2] = tested on: RAW264.7 cell-derived foam cells; assay: Formation of RAW264.7 cell-derived foam cells (ox-LDL, oil red O, absorbance 490 nm); assay type: cell-based, mouse; conditions: 48 hours, model group = 100%, x ± s, n = 3
Protocol: The effects of the compounds prepared in Examples 1-30 of the present invention on the formation of RAW264.7 cell-derived foam cells, the specific steps are as follows:
1. Cell culture and foam cell model establishment:
RAW264.7 cells were cultured in DMEM culture medium with high glucose level (GIBCO) to a cell concentration of 1×10^6, planted in a 6-well plate, and 60 mg/L of ox-LDL (oxidized modified low-density lipoprotein, Peking Union Medical College) was added, foam cells were obtained after 48 hours of incubation.
2. Grouping and index detection:
The obtained foam cells were divided into 61 groups, 3 well plates were included in one group. After the treatment by adding the drugs (100 μL/well) for 48 hours, the medium was discarded, and after oil red 0 staining, the excess amount of oil red 0 was washed away. The cells were dissolved in isopropanol and the absorbance values were measured at 490 nm. The OD value of the model group was 100%, and the OD value of each group corrected by the number of cells was compared with the model group to obtain the ratio of intracellular lipid content. The larger the value, the more intracellular lipids, the higher the degree of formation of foam cells.
Normal saline control group: normal saline
Low dose groups of the compounds prepared in Examples 1-30 of the present invention:
10 μmol/L (solvents were normal saline).
High dose groups of compounds prepared in Examples 1-30 of the present invention: 30 μmol/L (solvents were normal saline).
Data were expressed as x±s, and SPSS 10.0 line single-factor analysis of variance was performed amoung groups, a significant difference was indicated when p<0.05.

TNF-α = assay: Local TNF-α level in the arteries of apoE-/- mice (Millipore liquid phase chip); assay type: in vivo, mouse; conditions: high-fat diet, intragastric 15 weeks, compounds 30 mg/(kg·d), simvastatin 10 mg/(kg·d), x ± s, n = 5, saline control 25.58 ± 6.44
Excerpt: (§1) The effects of the compounds prepared in Examples 1-30 of the present invention on the percentages of areas of atherosclerotic plaque formation to the area of the entire artery in apoE−/− mice with a high-fat diet and the levels of low-density lipoprotein cholesterol and the levels of high-density lipoprotein, the specific steps are as follows: 1. animals: 160 ten-week-old, healthy and clean-grade apoE−/− mice (purchased from Peking University Experimental Animal Center), males, weight: 22-25 g, were housed in separate cages in a sterile laminar feeding room and fed freely. The mice were fed by a high-fat diet (conventional feed+0.15% cholesterol+21% lard) for 25 weeks, the room temperature was kept at 24° C., relative humidity: 50%, illumination time 7:30-19:30. 2. Grouping, administration method: after 10 weeks of feeding, the animals were divided into the following 32 groups (n=5) by weight in a balanced and random manner, and killed 15 weeks after administration. Normal saline control group: normal saline, intragastric administration. Positive control group: simvastatin 10 mg/(kg·d), intragastric administration. The compound groups prepared in Examples 1-30 of the present invention (30 groups in total): each was intragastric administered 30 mg/(kg·d). (3) Determination of TNF-α level: Millipore liquid phase chip method was used for the determination (Mcytomag-70K-3, Mouse Cytokine/Chemokine Magnetic Bead Panel). Data were expressed as x±s, and SPSS 10.0 line single-factor analysis of variance was performed among groups, a significant difference was indicated when p<0.05.

apoE−/− mice [3] = assay: Atherosclerotic plaque area to total aortic area in apoE-/- mice on high-fat diet (Sudan IV staining); assay type: in vivo, mouse; conditions: intragastric 15 weeks, compounds 30 mg/(kg·d), simvastatin 10 mg/(kg·d), x ± s, n = 5, saline control 14.67 ± 3.58
Excerpt: as §1, with “(1) Analysis” for “(3) Determination”, “the area of atherosclerotic plaque and its percentage to total area: after the animals were killed, the aortas were separated, from the roots of the aortas to the terminal bifurcations of the abdominal aortas. After formalin fixation, the aortas were stained with Sudan IV, the red stained parts were the areas of atherosclerotic lesions. The percentage of the area of the lesion area to total area” for “TNF-α level: Millipore liquid phase chip method”, “calculated using Image Pro Plus 5.0 software.” for “used for the determination (Mcytomag-70K-3, Mouse Cytokine/Chemokine Magnetic Bead Panel).”

Structure (SMILES) | HDL-C (apoE−/− mice [1]) | LDL-C (apoE−/− mice [1]) | Cell Survival Rate (RAW264.7 cells) | Foam cell formation (%) ([2]; dose 10 μmol/L) | Foam cell formation (%) ([2]; dose 30 μmol/L) | TNF-α level (ng/g) (TNF-α) | Plaque area/total aorta area (%) (apoE−/− mice [3])
CC(=O)OC[C@H]1O[C@H](O[C@@](C)(CCC=C(C)C)C2CC[C@]3(C)[C@@H]2C(OC(C)=O)CC2[C@@]4(C)CC[C@H](OC(C)=O)C(C)(C)C4CC[C@]23C)[C@H](OC(C)=O)[C@@H](OC(C)=O)[C@@H]1OC(C)=O (some centres unmarked) [Compound 1] | 4.55 ± 0.86 ^a mmol/L | 6.39 ± 1.09 mmol/L | 0.65 ± 0.07 ^a | 83 ± 12% | 65 ± 18 ^a % | 19.41 ± 3.81 ^a ng/g | 10.65 ± 2.62 ^a %
CC(=O)OC[C@H]1O[C@H](O[C@@](C)(CCC2OC2(C)C)C2CC[C@]3(C)[C@@H]2C(OC(C)=O)CC2[C@@]4(C)CC[C@H](OC(C)=O)C(C)(C)C4CC[C@]23C)[C@H](OC(C)=O)[C@@H](OC(C)=O)[C@@H]1OC(C)=O (some centres unmarked) [Compound 2] | 5.47 ± 0.91 ^a mmol/L | 5.56 ± 1.24 ^a mmol/L | 0.51 ± 0.08 ^a | 70 ± 25 ^a % | 64 ± 19% | 13.24 ± 3.71 ^a ng/g | 8.27 ± 2.54 ^a %
CC(=O)OC[C@H]1O[C@H](O[C@@](C)(CCC=O)C2CC[C@]3(C)[C@@H]2C(OC(C)=O)CC2[C@@]4(C)CC[C@H](OC(C)=O)C(C)(C)C4CC[C@]23C)[C@H](OC(C)=O)[C@@H](OC(C)=O)[C@@H]1OC(C)=O (some centres unmarked) [Compound 3] | 4.97 ± 0.95 ^a mmol/L | 6.12 ± 1.28 mmol/L | 0.42 ± 0.03 ^a | 85 ± 20% | 72 ± 13 ^a % | 16.68 ± 4.98 ^a ng/g | 9.74 ± 3.19 ^a %
COC(=O)[C@H](CC(C)C)NCCC[C@](C)(O[C@H]1O[C@H](COC(C)=O)[C@@H](OC(C)=O)[C@H](OC(C)=O)[C@H]1OC(C)=O)C1CC[C@]2(C)[C@@H]1C(OC(C)=O)CC1[C@@]3(C)CC[C@H](OC(C)=O)C(C)(C)C3CC[C@]12C (some centres unmarked) [Compound 4] | 5.48 ± 0.61 ^a mmol/L | 4.62 ± 1.58 ^a mmol/L | 0.84 ± 0.02 | 74 ± 15 ^a % | 54 ± 12 ^a % | 11.04 ± 3.68 ^a ng/g | 9.52 ± 4.21 ^a %
COC(=O)[C@@H](NCCC[C@](C)(O[C@H]1O[C@H](COC(C)=O)[C@@H](OC(C)=O)[C@H](OC(C)=O)[C@H]1OC(C)=O)C1CC[C@]2(C)[C@@H]1C(OC(C)=O)CC1[C@@]3(C)CC[C@H](OC(C)=O)C(C)(C)C3CC[C@]12C)C(C)C (some centres unmarked) [Compound 5] | 5.21 ± 0.73 ^a mmol/L | 5.58 ± 1.89 ^a mmol/L | 0.87 ± 0.08 | 77 ± 18 ^a % | 62 ± 13 ^a % | 17.73 ± 4.87 ^a ng/g | 10.29 ± 2.67 ^a %
COC(=O)[C@H](NCCC[C@](C)(O[C@H]1O[C@H](COC(C)=O)[C@@H](OC(C)=O)[C@H](OC(C)=O)[C@H]1OC(C)=O)C1CC[C@]2(C)[C@@H]1C(OC(C)=O)CC1[C@@]3(C)CC[C@H](OC(C)=O)C(C)(C)C3CC[C@]12C)[C@@H](C)O (some centres unmarked) [Compound 6] | 5.51 ± 0.94 ^a mmol/L | 6.04 ± 1.07 mmol/L | 0.83 ± 0.09 | 73 ± 16 ^a % | 48 ± 14 ^a % | 11.35 ± 4.97 ^a ng/g | 8.16 ± 2.83 ^a %
COC(=O)[C@H](CO)NCCC[C@](C)(O[C@H]1O[C@H](COC(C)=O)[C@@H](OC(C)=O)[C@H](OC(C)=O)[C@H]1OC(C)=O)C1CC[C@]2(C)[C@@H]1C(OC(C)=O)CC1[C@@]3(C)CC[C@H](OC(C)=O)C(C)(C)C3CC[C@]12C (some centres unmarked) [Compound 7] | 4.52 ± 0.46 ^a mmol/L | 5.50 ± 1.82 ^a mmol/L | 0.86 ± 0.01 | 83 ± 13% | 71 ± 13 ^a % | 17.77 ± 4.63 ^a ng/g | 11.02 ± 2.71 ^a %
CCC(C)(C)C(=O)O[C@H]1C[C@@H](C)C=C2C=C[C@H](C)[C@H](CC[C@@H]3C[C@@H](O)CC(=O)O3)[C@H]21 [Simvastatin, simvastatin, reference compound] | 3.69 ± 0.72 ^a mmol/L | 2.75 ± 1.89 ^a mmol/L |  |  |  | 14.84 ± 3.22 ^a ng/g | 7.95 ± 2.03 ^a %
